Results on 13 compounds are retold here after US9274102B2, “Method of screening for an inhibitor of odor cause by furaneol” (Kao Corporation, priority 2013, dated 2016).

Assay [1] addresses T1, olfactory receptor OR5K1 (Homo sapiens, UniProt Q8NHB7).
T1 construct: Flag-Rho tag (N); expressed in transfected cells; host or cells: HEK293
T1 sequence (Q8NHB7 1-308): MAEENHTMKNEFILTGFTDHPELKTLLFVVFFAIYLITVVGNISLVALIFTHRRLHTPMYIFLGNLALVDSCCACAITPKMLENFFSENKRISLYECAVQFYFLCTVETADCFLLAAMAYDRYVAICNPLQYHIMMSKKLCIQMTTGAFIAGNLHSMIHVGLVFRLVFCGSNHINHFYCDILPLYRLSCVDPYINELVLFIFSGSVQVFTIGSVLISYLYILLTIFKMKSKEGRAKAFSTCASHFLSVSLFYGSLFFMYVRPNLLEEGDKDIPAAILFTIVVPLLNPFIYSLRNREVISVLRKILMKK
Put plainly: Antagonistic activity against the response of OR5K1 to Furaneol (luciferase reporter gene assay, HEK293 cells). Format: cell-based. Particulars: Furaneol 3 mM, test substance 100 μM; OR5K1-expressing HEK293 cells; read-out: rate of inhibition of the response of OR5K1 to Furaneol. The method, then: 84 types of test substances were examined for their antagonistic activity against the response of the olfactory receptor OR5K1 to Furaneol.
Furaneol (3 mM) and each test substance (100 μM) were added to HEK293 cells allowed to express the olfactory receptor OR5K1 by the same procedures as in Example 2. The response of the olfactory receptor was measured to evaluate change in receptor response caused by the addition of the test substance.
The rate of inhibition of the receptor response by the test substance was calculated as follows: firefly luciferase-derived luminescence intensity (Y) in the olfactory receptor OR5K1-expressing cells without Furaneol stimulation was subtracted from firefly luciferase-derived luminescence intensity (X) induced by stimulation with Furaneol alone to determine receptor activity (X−Y) based on the stimulation with Furaneol alone. Likewise, the luminescence intensity (Y) in the cells without Furaneol stimulation was subtracted from luminescence intensity (Z) induced by stimulation with the mixture of Furaneol and the test substance to determine receptor activity (Z−Y) in the presence of the test substance. The rate of reduction in the receptor activity (Z−Y) in the presence of the test substance with respect to the receptor activity (X−Y) based on the stimulation with Furaneol alone was calculated according to an expression shown below to determine the rate of inhibition of the receptor response by the test substance. In this assay, a plurality of independent duplicate experiments were performed. An average of the experiments in each run was obtained. Rate of inhibition (%)={1−(Z−Y)/(X−Y)}×100
(In general: Reporter assays use an easily measured gene product as a stand-in for the process of interest.)

Assay [2] has as its target T1, olfactory receptor OR5K1. The assay can be described thus: Luciferase reporter gene assay: response of olfactory receptors expressed on HEK293 cells to Furaneol. The format is cell-based. The method, then:
HEK293 cells expressing each of 400 types of human olfactory receptors were prepared. Each reaction solution having the composition shown in Table 1 was prepared, then left standing for 15 minutes in a clean bench, and then added to each well of a 96-well plate (Becton, Dickinson and Company). Subsequently, the HEK293 cells (3×10^5 cells/cm^2) were inoculated thereto at 100 μL/well and then cultured at 37° C. for 24 hours in an incubator kept at 5% CO2.
The olfactory receptors expressed on the HEK293 cells are conjugated with intracellular Gαs to activate adenylate cyclase, thereby increasing intracellular cAMP levels. In this study, their responses to Furaneol were measured using luciferase reporter gene assay which involved monitoring increase in intracellular cAMP level as luminescence intensity derived from a firefly luciferase gene (fluc2P-CRE-hygro). […]
A medium was removed from the cultures prepared in the preceding paragraph 3). […] The luciferase activity was measured using Dual-Glo™ luciferase assay system (Promega Corp.) according to the instruction manual of the product. Firefly luciferase-derived luminescence intensity induced by stimulation with Furaneol was divided by luminescence intensity in the cells without Furaneol stimulation to calculate a value as fold increase, which was in turn used as an index for response intensity. […]

SMILES strings stand for the structures.

Consider `CC(=O)O[C@]1(C)CC[C@@]23C[C@@H]1C(C)(C)[C@@H]2CC[C@H]3C` [Cedryl acetate], for which the inhibition (commonly the share of the control response that was lost under treatment) at 100 µM in assay [1] is not below 50%.

Take `CC(C)=CCCC(C)=CC=O` [Citral]: the inhibition at 100 µM in assay [1] was not below 75%.

`CC1=C(O)C(=O)C(C)O1` (centres unmarked) [Furaneol, 2,5-dimethyl-4-hydroxy-3(2H)-furanone]: the “concentration dependence of OR5K1 response to Furaneol” value in assay [2] (Furaneol 0, 3, 10, 30, 100, 300, 1000 and 3000 μM, OR5K1 with human RTP1S on HEK293 cells, FIG. 2) is “concentration-dependent response”. Further, the “response of olfactory receptor to Furaneol (fold increase of luminescence)” value in assay [2] (Furaneol 3 mM, 400 types of human olfactory receptors screened in HEK293 cells, FIG. 1) is “only the olfactory receptor OR5K1 exhibited a response”.

Regarding `CC(=O)C1(C)CC2=C(CCCC2(C)C)CC1C` (centres unmarked) [Iso E Super, 7-Acetyl-1,2,3,4,5,6,7,8-octahydro-1,1,6,7-tetramethyl-naphthalene], the inhibition at 100 µM in assay [1] is not below 75%.

As to `CC1(CO)CC1CC1CC2CC2(C)C1(C)C` [Javanol(R), (1-Methyl-2-(1,2,2-trimethylbicyclo[3.1.0]-hex-3-ylmethyl)cyclopropyl)methanol], the inhibition at 100 µM in assay [1] is not below 40%.

Consider `CC1C/C=C/CCCCCCCCCC(=O)C1` [Muscenone(R) Delta, (5E)-3-Methylcyclopentadec-5-en-1-one], for which, in assay [1], the inhibition at 100 µM is not below 75%.

Regarding `CC(=O)c1cc2c(cc1C)C(C)(C)C(C)CC2(C)C` [Tonalid(R), 1-(5,6,7,8-tetrahydro-3,5,5,6,8,8-hexamethyl-2-naphthalenyl)-ethanone], in assay [1], the inhibition at 100 µM is not below 75%.

Consider `CC(=O)C1=C(C)C2CC3(C1)C(C)CCC3C2(C)C` (centres unmarked) [acetylcedrene, 1-(2,3,4,7,8,8a-hexahydro-3,6,8,8-tetramethyl-1H-3a,7-methanoazulen-5-yl)-ethanone], for which the inhibition at 100 µM in assay [1] was not below 75%.

`CCC(=CCC1CC=C(C)C1(C)C)CO` (centres unmarked) [bangalol, 2-Ethyl-4-(2,2,3-trimethyl-3-cyclopenten-1-yl)-2-buten-1-ol]: the inhibition at 100 µM in assay [1] is not below 50%.

For the compound `CC(C)(C)c1ccc(CCC=O)cc1` [bourgeonal, 3-(4-tert-Butylphenyl)propanal], the inhibition at 100 µM in assay [1] was not below 75%.

For the compound `CC1COCc2cc3c(cc21)C(C)(C)C(C)C3(C)C` (centres unmarked) [galaxolide, 4,6,6,7,8,8-Hexamethyl-1,3,4,6,7,8-hexahydrocyclopenta[g]isochromene], in assay [1], the inhibition at 100 µM is not below 75%.

`CC(=O)/C(C)=C/C1C(C)=CCCC1(C)C` (centres unmarked) [methyl ionone-G, (E)-3-Methyl-4-(2,6,6-trimethylcyclohex-2-en-1-yl)but-3-en-2-one]: the inhibition at 100 µM in assay [1] was not below 75%.

For `Cc1ccc(C(C)C)c(O)c1` [thymol, 5-Methyl-2-(1-methylethyl)-phenol], the inhibition at 100 µM in assay [1] is not below 75%.
